The values below come from patent US12478617B2, “Lipidated peptide inhibitors of interleukin-23 receptor” (JANSSEN BIOTECH, INC., priority 2021, dated 2025).

Starred links: 1 amine or outer side, 2 acyl side, 3 side chain; linkers in the order of their positions; H or OH if unused. Positions of bridges follow the written chain, without caps; N, C: chain ends. Non-standard residues stand in square brackets, D forms with d. Residues, ends and D or L forms follow the SMILES beside them. Groups on a side chain read outwards from the residue. *: point of attachment. X7 = C[N+](C)(CCNC(=O)CC[C@H](NC(=O)CCCCCCCCCCCCCCCCC(=O)O)C(=O)O)CC(=O)*; X6 = C[N+](C)(CCNC(=O)CCCCCCCCCCCCCCCCC(=O)O)CC(=O)*; Trp(7-Me) = Cc1cccc2c(C[C@H](N)C(=O)O)c[nH]c12; C18 diacid = O=C(O)CCCCCCCCCCCCCCCCC(=O)*; C16 diacid = O=C(O)CCCCCCCCCCCCCCC(=O)*; γGlu = O=C(O)[C@H](CCC(=O)[*:2])N[*:1]; 2Nal = N[C@@H](Cc1ccc2ccccc2c1)C(=O)O; AEF = NCCOc1ccc(C[C@H](N)C(=O)O)cc1; PEG6 = NCCOCCOCCOCCOCCOCCOCCC(=O)O; 3Pal = N[C@@H](Cc1cccnc1)C(=O)O; Pen = CC(C)(S)[C@H](N)C(=O)O; Thp = NC1(C(=O)O)CCOCC1; AEEA = NCCOCCOCC(=O)O; Sar = CNCC(=O)O

The target of this test is T1, IL-23R (Homo sapiens, UniProt Q5VWK5).
T1 construct: HEK293 cells containing IL-23R, IL-12RP31 and a firefly luciferase reporter gene driven by a STAT-inducible promoter (Promega); host or cells: HEK293
T1 sequence (Q5VWK5 24-629): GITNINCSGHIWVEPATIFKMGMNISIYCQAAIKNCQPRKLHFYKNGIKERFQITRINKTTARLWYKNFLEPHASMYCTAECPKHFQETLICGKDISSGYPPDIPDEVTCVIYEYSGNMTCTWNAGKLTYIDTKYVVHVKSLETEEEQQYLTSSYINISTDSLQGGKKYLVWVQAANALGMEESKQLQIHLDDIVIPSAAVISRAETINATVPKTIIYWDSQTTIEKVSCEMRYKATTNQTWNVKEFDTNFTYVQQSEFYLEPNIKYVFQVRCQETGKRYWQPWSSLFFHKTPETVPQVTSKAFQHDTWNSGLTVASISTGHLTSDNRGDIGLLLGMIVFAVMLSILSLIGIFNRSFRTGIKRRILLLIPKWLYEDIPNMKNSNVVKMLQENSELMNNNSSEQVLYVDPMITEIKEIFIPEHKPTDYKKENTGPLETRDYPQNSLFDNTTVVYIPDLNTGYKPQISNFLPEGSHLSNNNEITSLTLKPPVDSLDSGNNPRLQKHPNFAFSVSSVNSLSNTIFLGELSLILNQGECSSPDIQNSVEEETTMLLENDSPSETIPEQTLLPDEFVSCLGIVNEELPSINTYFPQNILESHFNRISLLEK
Briefly: IL23R Reporter Assay. In kind it is cell-based. A digest of the protocol:
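Luminescence from BioGlo, read after cells were moved to 20 °C, followed a 5 h incubation at 37 °C, 5% CO2 with DMSO-diluted test compounds.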
`CC(=O)NCCCC[C@@H]1NC(=O)[C@H](Cc2c[nH]c3c(C)cccc23)NC(=O)[C@H]([C@@H](C)O)NC(=O)[C@H](CCCCNC(=O)COCCOCCNC(=O)COCCOCCNC(=O)CC[C@H](NC(=O)CCCCCCCCCCCCCCC(=O)O)C(=O)O)NC(=O)[C@@H](NC(=O)[C@@H](CCCNC(=N)N)NC(C)=O)C(C)(C)SSC(C)(C)[C@@H](C(=O)N[C@@H](Cc2ccc(OCCN)cc2)C(=O)N[C@@H](Cc2ccc3ccccc3c2)C(=O)NC2(C(=O)N[C@@H](CCC(=O)O)C(=O)N[C@@H](CC(N)=O)C(=O)N[C@@H](Cc3cccnc3)C(=O)N(C)CC(N)=O)CCOCC2)NC1=O` [Example 21, MeCO-r-Pen*-K(PEG2PEG2gEC16OH)-T-7MeW-K(Ac)-Pen*-AEF-2Nal-THP-E-N-3Pya-Sar-CONH2] (Ac-[dR][Pen]K([AEEA-AEEA-γGlu-C16 diacid])T[Trp(7-Me)]K(Ac)[Pen][AEF][2Nal][Thp]EN[3Pal][Sar]-NH2; disulfide 2-7): the midpoint of inhibition, the IC50, lay at 33 pM.
As for `CC(=O)NCCCC[C@@H]1NC(=O)[C@H](Cc2c[nH]c3c(C)cccc23)NC(=O)[C@H]([C@@H](C)O)NC(=O)[C@H](CC(N)=O)NC(=O)[C@@H](NC(=O)[C@@H](CCCNC(=N)N)NC(C)=O)C(C)(C)SSC(C)(C)[C@@H](C(=O)N[C@@H](Cc2ccc(OCCN)cc2)C(=O)N[C@@H](Cc2ccc3ccccc3c2)C(=O)NC2(C(=O)N[C@@H](CCCCNC(=O)COCCOCCNC(=O)COCCOCCNC(=O)CC[C@H](NC(=O)CCCCCCCCCCCCCCCCC(=O)O)C(=O)O)C(=O)N[C@@H](CC(N)=O)C(=O)N[C@@H](Cc3cccnc3)C(=O)N(C)CC(N)=O)CCOCC2)NC1=O` [Example 27, MeCO-r-Pen*-N-T-7MeW-K(Ac)-Pen*-AEF-2Nal-THP-K(PEG2PEG2gEC18OH)-N-3Pya-Sar-CONH2] (Ac-[dR][Pen]NT[Trp(7-Me)]K(Ac)[Pen][AEF][2Nal][Thp]K([AEEA-AEEA-γGlu-C18 diacid])N[3Pal][Sar]-NH2; disulfide 2-7), the figure is 59 pM; as for `CC(=O)NCCCC[C@@H]1NC(=O)[C@H](Cc2c[nH]c3c(C)cccc23)NC(=O)[C@H]([C@@H](C)O)NC(=O)[C@H](CCCCNC(=O)CCOCCOCCOCCOCCOCCOCCNC(=O)CC[C@H](NC(=O)CCCCCCCCCCCCCCCCC(=O)O)C(=O)O)NC(=O)[C@@H](NC(=O)[C@@H](CCCNC(=N)N)NC(C)=O)C(C)(C)SSC(C)(C)[C@@H](C(=O)N[C@@H](Cc2ccc(OCCN)cc2)C(=O)N[C@@H](Cc2ccc3ccccc3c2)C(=O)NC2(C(=O)N[C@@H](CCCCNC(C)=O)C(=O)N[C@@H](CC(N)=O)C(=O)N[C@@H](Cc3cccnc3)C(=O)N(C)CC(N)=O)CCOCC2)NC1=O` [Example 63, MeCO-r-Pen*-K(PEG6gEC18OH)-T-7MeW-K(Ac)-Pen*-AEF-2Nal-THP-K(Ac)-N-3Pya-Sar-CONH2] (Ac-[dR][Pen]K([PEG6-γGlu-C18 diacid])T[Trp(7-Me)]K(Ac)[Pen][AEF][2Nal][Thp]K(Ac)N[3Pal][Sar]-NH2; disulfide 2-7), 130 pM; as for `CC(=O)NCCCC[C@@H]1NC(=O)[C@H](Cc2c[nH]c3c(C)cccc23)NC(=O)[C@H]([C@@H](C)O)NC(=O)[C@H](CC(N)=O)NC(=O)[C@@H](NC(C)=O)C(C)(C)SSC(C)(C)[C@@H](C(=O)N[C@@H](Cc2ccc(OCCN)cc2)C(=O)N[C@@H](Cc2ccc3ccccc3c2)C(=O)NC2(C(=O)N[C@@H](CCCCNC(=O)COCCOCCNC(=O)COCCOCCNC(=O)CC[C@H](NC(=O)[C@H](CNC(=O)CCCCCCCCCOc3cccc(C(=O)O)c3)NC(=O)CCCCCCCCCOc3cccc(C(=O)O)c3)C(=O)O)C(=O)N[C@@H](CC(N)=O)C(=O)N[C@@H](Cc3cccnc3)C(=O)N(C)CC(N)=O)CCOCC2)NC1=O` [Example 134, MeCO-Pen*-N-T-7MeW-K(Ac)-Pen*-AEF-2Nal-THP-K(PEG2PEG2gEDAP(mXOH)2)-N-3Pya-Sar-CONH2], 37 pM.
On to `CC(=O)NCCCC[C@@H]1NC(=O)[C@H](Cc2c[nH]c3c(C)cccc23)NC(=O)[C@H]([C@@H](C)O)NC(=O)[C@H](CCCCNC(=O)COCCOCCNC(=O)CC[C@H](NC(=O)CCCCCCCCCCCCCCCCC(=O)O)C(=O)O)NC(=O)[C@@H](NC(=O)[C@@H](CCCNC(=N)N)NC(C)=O)C(C)(C)SSC(C)(C)[C@@H](C(=O)N[C@@H](Cc2ccc(OCCN)cc2)C(=O)N[C@@H](Cc2ccc3ccccc3c2)C(=O)NC2(C(=O)N[C@@H](CCCCNC(C)=O)C(=O)N[C@@H](CC(N)=O)C(=O)N[C@@H](Cc3cccnc3)C(=O)N(C)CC(N)=O)CCOCC2)NC1=O` [Example 52, MeCO-r-Pen*-K(PEG2gE C18OH)-T-7MeW-K(Ac)-Pen*-AEF-2Nal-THP-K(Ac)-N-3Pya-Sar-CONH2] (Ac-[dR][Pen]K([AEEA-γGlu-C18 diacid])T[Trp(7-Me)]K(Ac)[Pen][AEF][2Nal][Thp]K(Ac)N[3Pal][Sar]-NH2; disulfide 2-7), for which the IC50 worked out at 150 pM.
`CC(=O)NCCCC[C@@H]1NC(=O)[C@H](Cc2c[nH]c3c(C)cccc23)NC(=O)[C@H]([C@@H](C)O)NC(=O)[C@H](CC(N)=O)NC(=O)[C@@H](NC(=O)[C@@H](CCCNC(=N)N)NC(=O)COCCOCCNC(=O)COCCOCCNC(=O)CC[C@H](NC(=O)CCCCCCCCCCCCCCC(=O)O)C(=O)O)C(C)(C)SSC(C)(C)[C@@H](C(=O)N[C@@H](Cc2ccc(OCCN)cc2)C(=O)N[C@@H](Cc2ccc3ccccc3c2)C(=O)NC2(C(=O)N[C@@H](CCCCNC(C)=O)C(=O)N[C@@H](CC(N)=O)C(=O)N[C@@H](Cc3cccnc3)C(=O)N(C)CC(N)=O)CCOCC2)NC1=O` [Example 24, HOC16gEPEG2PEG2-r-Pen*-N-T-7MeW-K(Ac)-Pen*-AEF-2Nal-THP-K(Ac)-N-3Pya-Sar-CONH2] ({C16 diacid-γGlu-AEEA-AEEA}-[dR][Pen]NT[Trp(7-Me)]K(Ac)[Pen][AEF][2Nal][Thp]K(Ac)N[3Pal][Sar]-NH2; disulfide 2-7) yielded a 50% inhibitory concentration (IC50) of 17 pM.
As for `CC(=O)NCCCC[C@@H]1NC(=O)[C@H](Cc2c[nH]c3c(C)cccc23)NC(=O)[C@H]([C@@H](C)O)NC(=O)[C@H](CC(N)=O)NC(=O)[C@@H](NC(C)=O)C(C)(C)SSC(C)(C)[C@@H](C(=O)N[C@@H](Cc2ccc(OCCN)cc2)C(=O)N[C@@H](Cc2ccc3ccccc3c2)C(=O)NC2(C(=O)N[C@@H](CCCCNC(=O)COCCOCCNC(=O)COCCOCCNC(=O)CC[C@H](NC(=O)C[N+](C)(C)CCNC(=O)CCCCCCCCCCCCCCCCC(=O)O)C(=O)O)C(=O)N[C@@H](CC(N)=O)C(=O)N[C@@H](Cc3cccnc3)C(=O)N(C)CC(N)=O)CCOCC2)NC1=O` [Example 123, MeCO-Pen*-N-T-7MeW-K(Ac)-Pen*-AEF-2Nal-THP-K(PEG2PEG2 gE SP6 C18OH)-N-3Pya-Sar-CONH2] (Ac-[Pen]NT[Trp(7-Me)]K(Ac)[Pen][AEF][2Nal][Thp]K([AEEA-AEEA-γGlu-X6])N[3Pal][Sar]-NH2; disulfide 1-6), the figure is 73 pM; as for `CC(=O)NCCCC[C@@H]1NC(=O)[C@H](Cc2c[nH]c3c(C)cccc23)NC(=O)[C@H]([C@@H](C)O)NC(=O)[C@H](CC(N)=O)NC(=O)[C@@H](NC(C)=O)C(C)(C)SSC(C)(C)[C@@H](C(=O)N[C@@H](Cc2ccc(OCCN)cc2)C(=O)N[C@@H](Cc2ccc3ccccc3c2)C(=O)NC2(C(=O)N[C@@H](CCCCNC(=O)COCCOCCNC(=O)COCCOCCNC(=O)C[N+](C)(C)CCNC(=O)CC[C@H](NC(=O)CCCCCCCCCCCCCCCCC(=O)O)C(=O)O)C(=O)N[C@@H](CC(N)=O)C(=O)N[C@@H](Cc3cccnc3)C(=O)N(C)CC(N)=O)CCOCC2)NC1=O` [Example 118, MeCO-Pen*-N-T-7MeW-K(Ac)-Pen*-AEF-2Nal-THP-K(PEG2PEG2SP6gEC18OH)-N-3Pya-Sar-CONH2] (Ac-[Pen]NT[Trp(7-Me)]K(Ac)[Pen][AEF][2Nal][Thp]K([AEEA-AEEA-X7])N[3Pal][Sar]-NH2; disulfide 1-6), 77 pM.
